# Measurements as given in ChEMBL document CHEMBL3885881, “DrugMatrix”.
# Organism: Rattus norvegicus
# Assay: DrugMatrix - Regimen: Daily Repeat
# Assay type: toxicity, organism-based, Sprague-Dawley
# Parameters: regimen Daily Repeat, gender Male, age 6-8 weeks
# Details: in vivo, iv, vehicle 100 % SALINE; for URIC ACID / ALANINE AMINOTRANSFERASE / ALBUMIN / ALKALINE PHOSPHATASE / ASPARTATE AMINOTRANSFERASE / BLOOD UREA NITROGEN / CARBON DIOXIDE / CHLORIDE / CHOLESTEROL / CREATINE PHOSPHOKINASE / CREATININE / GLUCOSE / LIPASE / PHOSPHORUS / POTASSIUM / SODIUM / TOTAL BILIRUBIN / TOTAL PROTEIN: tissue Plasma; for ABSOLUTE BASOPHIL / ABSOLUTE EOSINOPHIL / ABSOLUTE LYMPHOCYTE / ABSOLUTE MONOCYTE / ABSOLUTE SEGMENTED NEUTROPHIL / BASOPHIL / EOSINOPHIL / ERYTHROCYTE COUNT / HEMATOCRIT / HEMOGLOBIN / LYMPHOCYTE / MEAN CORPUSCULAR HEMOGLOBIN / MEAN CORPUSCULAR HEMOGLOBIN CONCENTRATION / MONOCYTE / NEUTROPHIL / NUCLEATED RED BLOOD CELLS / PLATELET COUNT: tissue Blood
# [1] = 5 mg/kg, 120 h, dose level High, time 5 day
# [2] = […], 72 h, dose 1.5 mg/Kg, dose level Low, time 3 day
# [3] = […], 120 h, dose 1.5 mg/Kg, dose level Low, time 5 day
smiles,measurement,setting,value
CCc1c2c(nc3ccc(OC(=O)N4CCC(N5CCCCC5)CC4)cc13)-c1cc3c(c(=O)n1C2)COC(=O)[C@]3(O)CC [IRINOTECAN],URIC ACID,"5 mg/kg, 72 h, dose level High, time 3 day",1.77 mg/dL
same,ABSOLUTE BASOPHIL,[1],0 CELLS/uL
same,ABSOLUTE EOSINOPHIL,[1],0 CELLS/uL
same,ABSOLUTE LYMPHOCYTE,[1],10356 CELLS/uL
same,ABSOLUTE MONOCYTE,[1],74 CELLS/uL
same,ABSOLUTE SEGMENTED NEUTROPHIL,[1],470 CELLS/uL
same,BASOPHIL,[1],0%
same,EOSINOPHIL,[1],0%
same,ERYTHROCYTE COUNT,[1],6.32 x10E6/uL
same,HEMATOCRIT,[1],37.73%
same,HEMOGLOBIN,[1],15.1 G/DL
same,LYMPHOCYTE,[1],95%
same,MEAN CORPUSCULAR HEMOGLOBIN,[1],23.93 pg
same,MEAN CORPUSCULAR HEMOGLOBIN CONCENTRATION,[1],40.07 G/DL
same,MONOCYTE,[1],0.67%
same,NEUTROPHIL,[1],4.33%
same,NUCLEATED RED BLOOD CELLS,[1],0 /100WBC
same,PLATELET COUNT,[1],1232.33 x10E3/uL
same,ALANINE AMINOTRANSFERASE,[1],38 u/L
same,ALBUMIN,[1],4.37 G/DL
same,ALKALINE PHOSPHATASE,[1],299.33 u/L
same,ASPARTATE AMINOTRANSFERASE,[1],100.33 u/L
same,BLOOD UREA NITROGEN,[1],21.33 mg/dL
same,CARBON DIOXIDE,[1],22.67 mmol/L
same,CHLORIDE,[1],100 MEQ/L
same,CHOLESTEROL,[1],65 mg/dL
same,CREATINE PHOSPHOKINASE,[1],991 u/L
same,CREATININE,[1],0.24 mg/dL
same,GLUCOSE,[1],171.67 mg/dL
same,LIPASE,[1],9.33 u/L
same,PHOSPHORUS,[1],12.93 mg/dL
same,POTASSIUM,[1],6.75 MEQ/L
same,SODIUM,[1],142.97 MEQ/L
same,TOTAL BILIRUBIN,[1],0.13 mg/dL
same,TOTAL PROTEIN,[1],6.67 G/DL
same,URIC ACID,[1],2.8 mg/dL
same,ABSOLUTE BASOPHIL,[2],0 CELLS/uL
same,ABSOLUTE EOSINOPHIL,[2],215 CELLS/uL
same,ABSOLUTE LYMPHOCYTE,[2],8779 CELLS/uL
same,ABSOLUTE MONOCYTE,[2],139.33 CELLS/uL
same,ABSOLUTE SEGMENTED NEUTROPHIL,[2],933.33 CELLS/uL
same,BASOPHIL,[2],0%
same,EOSINOPHIL,[2],2%
same,ERYTHROCYTE COUNT,[2],5.76 x10E6/uL
same,HEMATOCRIT,[2],36.73%
same,HEMOGLOBIN,[2],14.23 G/DL
same,LYMPHOCYTE,[2],87.33%
same,MEAN CORPUSCULAR HEMOGLOBIN,[2],24.73 pg
same,MEAN CORPUSCULAR HEMOGLOBIN CONCENTRATION,[2],38.77 G/DL
same,MONOCYTE,[2],1.33%
same,NEUTROPHIL,[2],9.33%
same,NUCLEATED RED BLOOD CELLS,[2],0 /100WBC
same,PLATELET COUNT,[2],1185.67 x10E3/uL
same,ALANINE AMINOTRANSFERASE,[2],45.33 u/L
same,ALBUMIN,[2],4.23 G/DL
same,ALKALINE PHOSPHATASE,[2],367.67 u/L
same,ASPARTATE AMINOTRANSFERASE,[2],79.33 u/L
same,BLOOD UREA NITROGEN,[2],14.67 mg/dL
same,CARBON DIOXIDE,[2],27 mmol/L
same,CHLORIDE,[2],99 MEQ/L
same,CHOLESTEROL,[2],76.33 mg/dL
same,CREATINE PHOSPHOKINASE,[2],268.33 u/L
same,CREATININE,[2],0.18 mg/dL
same,GLUCOSE,[2],157 mg/dL
same,LIPASE,[2],9.67 u/L
same,PHOSPHORUS,[2],15.07 mg/dL
same,POTASSIUM,[2],6.67 MEQ/L
same,SODIUM,[2],143.87 MEQ/L
same,TOTAL BILIRUBIN,[2],0.17 mg/dL
same,URIC ACID,[2],1.7 mg/dL
same,ABSOLUTE BASOPHIL,[3],0 CELLS/uL
same,ABSOLUTE EOSINOPHIL,[3],58.33 CELLS/uL
same,ABSOLUTE LYMPHOCYTE,[3],15491.67 CELLS/uL
same,ABSOLUTE MONOCYTE,[3],116.67 CELLS/uL
same,ABSOLUTE SEGMENTED NEUTROPHIL,[3],2000 CELLS/uL
same,BASOPHIL,[3],0%
same,EOSINOPHIL,[3],0.33%
same,HEMATOCRIT,[3],36.13%
same,HEMOGLOBIN,[3],14.3 G/DL
same,LYMPHOCYTE,[3],87.67%
same,MEAN CORPUSCULAR HEMOGLOBIN,[3],24 pg
same,MEAN CORPUSCULAR HEMOGLOBIN CONCENTRATION,[3],39.57 G/DL
same,MONOCYTE,[3],0.67%
same,NEUTROPHIL,[3],11.33%
same,NUCLEATED RED BLOOD CELLS,[3],0 /100WBC
same,PLATELET COUNT,[3],1288 x10E3/uL
same,ALANINE AMINOTRANSFERASE,[3],54 u/L
same,ALBUMIN,[3],4.03 G/DL
same,ALKALINE PHOSPHATASE,[3],415.33 u/L
same,ASPARTATE AMINOTRANSFERASE,[3],101 u/L
same,BLOOD UREA NITROGEN,[3],15.67 mg/dL
same,CARBON DIOXIDE,[3],26 mmol/L
same,CHLORIDE,[3],101.33 MEQ/L
same,CHOLESTEROL,[3],68.67 mg/dL
same,CREATINE PHOSPHOKINASE,[3],578.67 u/L
same,CREATININE,[3],0.21 mg/dL
same,GLUCOSE,[3],151 mg/dL
same,LIPASE,[3],9.67 u/L
same,PHOSPHORUS,[3],13.47 mg/dL
same,POTASSIUM,[3],6.54 MEQ/L
same,SODIUM,[3],146.17 MEQ/L
same,TOTAL BILIRUBIN,[3],0.13 mg/dL
same,TOTAL PROTEIN,[3],5.93 G/DL
same,URIC ACID,[3],1.8 mg/dL
